US9422238B2, “ICMT inhibitors” (National University of Singapore, priority 2012, dated 2016)
Where two headings read alike, the source gives them in different places.

Columns and labels:
[1] = target: T1, Isoprenylcysteine carboxyl methyltransferase (Icmt) (Homo sapiens, UniProt O60725); test: Icmt inhibition, scintillation proximity assay with BFC and [3H]SAM; assay type: biochemical; conditions: for IC50: Table 3, mean of two or more determinations (SD), read-out: IC50 Icmt
T1 construct: made in house; host or cells: Sf9 (Spodoptera frugiperda) insect cells; membrane preparation provided by Prof PJ Casey (Duke University / Duke-NUS)
T1 sequence (O60725 whole entry, species assumed): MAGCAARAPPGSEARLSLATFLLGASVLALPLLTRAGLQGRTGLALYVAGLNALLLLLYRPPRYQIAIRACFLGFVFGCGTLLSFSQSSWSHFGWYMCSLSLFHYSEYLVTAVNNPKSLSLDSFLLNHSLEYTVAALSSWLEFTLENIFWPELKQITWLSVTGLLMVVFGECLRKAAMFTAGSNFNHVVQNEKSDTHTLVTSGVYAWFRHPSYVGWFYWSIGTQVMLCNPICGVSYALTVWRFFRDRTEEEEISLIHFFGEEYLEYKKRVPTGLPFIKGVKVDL
Description: Isoprenylcysteine carboxyl methyltransferase (Icmt) was provided by Prof PJ Casey of Duke University, NC. S-Adenosylmethionine (SAM), magnesium chloride Hexahydrate (MgCl2), tartrazine, 4-(2-hydroxyethyl)-1-piperazineethanesulfonic acid (HEPES), dimethyl sulfoxide (DMSO) and dithiotreitol (DTT) were purchased from Sigma (Mo, USA). [^3H] S-Adenosylmethionine, [^3H] Biotin and Streptavidin PVT SPA Beads were purchased from PerkinElmer (Waltham, Mass.). Assays were performed in black small volume 384 well microtitre plates from PerkinElmer.
Stocks of Icmt membrane protein (30 μg/μL) stored at −80° C. were thawed at 37° C. and placed on ice. The Icmt membrane protein was diluted in assay buffer (70 mM HEPES, 100 mM NaCl, 5 mM Mg Cl2 and 3 mM DTT, pH 7.5) to a 0.03 μg/μL working concentration and added to the wells of a microtitre plate (5 μl/well). To each wells 20 μl of the reaction buffer was added. The reaction was initiated with the addition of 5 μL of substrate solution containing BFC (6 μM), SAM (3 μM) and 30 μCi/mL [^3H] SAM (all of these reagents were stored at −20° C., SAM reagents thawed on ice, BFC thawed at RT). The plate was incubated at 37° C. for 30 minutes. The reaction was stopped with the addition of 15 μL of stop solution containing SAM (150 μM) and Streptavidin SPA beads (20 mg/mL). Following overnight incubation at ambient temperature radioactivity was counted on a Microbeta Trilux™ (Perkin Elmer, Turku, Finland).
Sf9 (Spodoptera frugiperda ovarian) membranes containing recombinant Icmt were provided by Prof PJ Casey (Duke University, NC and Duke-NUS Graduate Medical School). S-Adenosylmethionine (SAM), magnesium chloride hexahydrate, tartrazine, 4-(2-hydroxyethyl)-1-piperazineethanesulfonic acid (HEPES) and dithiotreitol (DTT) were purchased from Sigma (Mo, USA). [^3H] S-Adenosylmethionine, [^3H] biotin and streptavidin PVT SPA Beads were purchased from PerkinElmer (Waltham, Mass.). Biotinylated farnesylcysteine was synthesized as described in an earlier report. Assays were performed in black 384-well microtitre plates from PerkinElmer.
A vial of Icmt membrane protein (30 μg/μL) stored at −80° C. was thawed at 37° C. and placed on ice. The protein was diluted in assay buffer (70 mM HEPES, 100 mM NaCl, 5 mM MgCl2, 3 mM DTT, pH 7.5) to 0.03 μg/μL and aliquots were added to each well (5 μL/well), followed by 20 μL of the assay buffer. The reaction was initiated by adding 5 μL of a solution containing biotinylated BFC (6 μM), SAM (3 μM) and 30 μCi/mL [^3H] SAM. These reagents were stored at −20° C. and thawed on ice (SAM, [^3H] SAM) or at room temperature (BFC). The plate was incubated at 37° C. for 30 minutes after which the reaction was quenched by adding 15 μL of a solution comprising SAM (150 μM) and streptavidin SPA beads (20 mg/mL). After overnight incubation at ambient temperature, radioactivity was counted (Microbeta Trilux™, Perkin Elmer, Turku, Finland). The degree of inhibition was assessed from the radioactivity obtained in presence of test compound compared to that obtained from the control sample […]. Two independent determinations were made for each test compound.

[2] = tested on: PC3 Prostrate cancer cells; test: Antiproliferative activity / cell viability (MTS, 72 h); assay type: cell-based, human
Description: (§1) The relative number of the live cells was determined using the CellTiter® 96 AQueous One Solution Cell Proliferation Assay (Promega). Determinations were made in duplicates or triplicates.

[3] = tested on: MDA-MB-231 human breast cells; test: as above
Description: as §1
Human breast cancer MDA-MB231, liver cancer HepG2 and lung fibroblast cells were purchased from ATCC (Rockville, Md.). MDA-MB231 cells and IMR-90 cells were grown in DMEM (Sigma Aldrich, Singapore) and EMEM (Sigma Aldrich, Singapore) respectively at 37° C., 5% CO2. DMEM was supplemented with 10% fetal bovine serum (Invitrogen, heat treated at 65 deg C., 30 min), 50 units/L penicillin-G and 50 μg/mL streptomycin. EMEM was supplemented with 10% fetal bovine serum (heat treated as above), 100 mg/L penicillin-G and 100 μg/mL streptomycin.
Cell viability was assessed using CellTitre 96® Aqueous One Solution (Promega, Madison, Wis.) containing the tetrazolium salt 3-(4,5-dimethylthiazol-2-yl)-5-(3-carboxymethoxyphenyl)-2-(4-sulfophenyl)-2H-tetrazolium (MTS). […] Final concentration of DMSO per well was maintained at 0.5% v/v. […] Cell viability was determined from the expression:
The plot was constrained to ≧0 and ≦100%. At least 3 independent determinations of IC50 were made using two different stock solutions of test compound.

[4] = Homo sapiens, PC-3M, Table 3, 72 h, mean (SD), read-out: IC50 PC3
[5] = Homo sapiens, MDA-MB-231, 72 h, read-out: IC50MDA-MB-231 (μM)
[6] = Table 3, 72 h, mean (SD), read-out: IC50 PC3
[7] = read-out: IC50MDA-MB-231, Table 3, 72 h, mean (SD)
[8] = Homo sapiens, Table 5, read-out: IC50 (μM) PC 3
[9] = Homo sapiens, MDA-MB-231, read-out: IC50 (μM) MDA-MB231

Row | SMILES | IC50 [1] [µM] | IC50 [2, 4] [µM] | IC50 [3, 5] [µM] | IC50 [2, 8] [µM] | IC50 [3, 9] [µM] | other results
1 | CCCCCCCCn1cc(CN(CC)CC)c2cc(-c3cccc(OC(F)(F)F)c3)ccc21 [Compound 8-6] |  |  |  |  |  | IC50 [2, 6]: 11.2 µM; IC50 [3, 7]: 7.17 µM
2 | CCCCCCCCn1cc(CN(CC)CC)c2cc(-c3cccc(O)c3)ccc21 [Compound 8-21, 3-(3-Diethylaminomethyl-1-octyl-1H-indol-5-yl)-phenol] | 5.43 | 17.4 | 14.8 |  |  | 
3 | CCCCCCCCn1c2c(c3cc(F)ccc31)CN(C)CC2 [Compound 199, 8-fluoro-2-methyl-5-n-octyl-1,2,3,4-tetrahydropyrido[4,3-b]indole] |  | 15.5 | 19.2 |  |  | 
4 | CCCCCCCCn1c2c(c3cc(F)ccc31)CN(Cc1ccc(O)cc1)CC2 [Compound 205, 8-fluoro-2-(4′-hydroxybenzyl)-5-n-octyl-1,2,3,4-tetrahydropyrido[4,3-b]indole] |  | 10.5 | 10.5 | 10.5 ± 0.28 | 10.5 ± 0.08 | 
5 | CCCCCCCCn1c2c(c3cc(-c4cccc(C)c4)ccc31)CN(C)CC2 [Compound 235, 2-methyl-8-m-tolyl-5-n-octyl-1,2,3,4-tetrahydropyrido[4,3-b]indoles] | 10.3 | 7.58 | 9.18 |  |  | times less potent as an Icmt inhibitor than 8-1 ([1]; ratio of IC50 Icmt): ~5
6 | CCCCCCCCn1c2c(c3cc(-c4cccc(C)c4)ccc31)CN(Cc1ccc(O)cc1)CC2 [Compound 240, 2-(4′-hydroxybenzyl)-8-m-tolyl-5-n-octyl-1,2,3,4-tetrahydropyrido[4,3-b]indoles] |  |  |  |  |  | IC50 [2, 6]: 10.2 µM; IC50 [3, 7]: 14.8 µM
7 | CCCCCCCCn1c2c(c3cc(-c4cccc(C)c4)ccc31)CN(C(C)C)CC2 [Compound 260, 2-isopropyl-8-m-tolyl-5-n-octyl-1,2,3,4-tetrahydropyrido[4,3-b]indoles] | 8.3 | 9.69 | 7.38 | 9.69 ± 1.84 | 7.38 ± 0.48 | 
8 | CC(C)=CCn1c2c(c3cc(-c4cccc(C)c4)ccc31)CN(Cc1ccc(O)cc1)CC2 [Compound 300, 2-(4′-hydroxybenzyl)-5-isoprenyl-8-m-tolyl-1,2,3,4-tetrahydropyrido[4,3-b]indoles] |  | 13.3 | 9.38 | 13.3 ± 5.7 | 9.38 ± 0.92 | 
9 | CCCCCCCCn1c2c(c3cc(-c4ccc(S(C)(=O)=O)cc4)ccc31)CN(C)CC2 [Compound 306, 2-methyl-8-(4′-(methylsulfonyl)phenyl)-5-n-octyl-1,2,3,4-tetrahydropyrido[4,3-b]indole] |  | 5.38 | 4.6 |  |  | 
10 | CCCCCCCCn1c2c(c3cc(-c4cnc(N)nc4)ccc31)CNCC2 [Compound 309, 8-(2′-amino-pyrimidin-5-yl)-5-n-octyl-1,2,3,4-tetrahydropyrido[4,3-b]indole] |  | 4.44 | 2.72 |  |  | 
11 | CCCCCCCCn1c2c(c3cc(-c4ccc(S(C)(=O)=O)cc4)ccc31)CNCC2 [Compound 314, 8-(4′-(methylsulfonyl)phenyl)-5-n-octyl-1,2,3,4-tetrahydropyrido[4,3-b]indole] |  | 2.92 | 2.1 |  |  | 
12 | CCCCCCCCn1c2c(c3cc(-c4ccnc(F)c4)ccc31)CNCC2 [Compound 315, 8-(2′-fluoropyridin-4-yl)-5-n-octyl-1,2,3,4-tetrahydro-1H-pyrido[4,3-b]indole] |  |  |  |  |  | IC50 [2, 6]: 7.69 µM; IC50 [3, 7]: 4.59 µM
13 | CCCCCCCCn1c2c(c3cc(-c4cccc(C)c4)ccc31)CN(Cc1ccccc1)CC2 [cpd 214] |  |  |  | 10.9 ± 2.31 | 8.6 ± 1.68 | 
14 | CCCCCCCCn1cc(C(=O)C(N)=O)c2cc(-c3cccc(C)c3)ccc21 [cpd 273] |  |  |  | 16.7 ± 1.68 | > 50 | 
15 | CCCCCCCCn1c2c(c3cc(-c4cnc(N)nc4)ccc31)CN(C(N)=O)CC2 [cpd 319] |  |  |  | 9.43 ± 3.85 |  | 
16 | CCCCCCCCn1c2c(c3cc(-c4cccc(C)c4)ccc31)CN(C(N)=O)CC2 [cpd 321] |  |  |  | 10.5 ± 3.08 |  | 
17 | CCCCCCCCn1c2c(c3cc(-c4ccnc(F)c4)ccc31)CN(C(N)=O)CC2 [cpd 323] |  |  |  | 10.2 ± 3.63 |  | 
18 | CCCCCCCCn1c2c(c3cc(-c4ccc(S(C)(=O)=O)cc4)ccc31)CN(C(N)=O)CC2 [cpd 324] |  |  |  | 8.88 ± 0.62 |  | 
19 | CCCCCCCCn1c2c(c3cc(-c4cnc(N)nc4)ccc31)CN(C(C)C)CC2 [cpd 474] |  |  |  | 9.32 ± 0.65 | 9.17 ± 0.54 | 
20 | CCCCCCCCn1c2c(c3cc(-c4cnc(N)nc4)ccc31)CN(C(=O)OCC)CC2 [cpd 480] |  |  |  | 21.3 | 17 | 
21 | CCCCCCCCn1c2c(c3cc(-c4cccc(C)c4)ccc31)CN(C(=O)OCC)CC2 [cpd 481] |  |  |  | 30.1 | 25.9 | 
22 | CCCCCCCCn1c2c(c3cc(-c4cnc(N)nc4)ccc31)CN(S(C)(=O)=O)CC2 [cpd 488] |  |  |  |  | 27.4 | 
23 | CCCCCCCCn1c2c(c3cc(-c4cnc(N)nc4)ccc31)CN(CC)CC2 [cpd 490] |  |  |  |  | 5.85 | 
24 | CCCCCCCCn1c2c(c3cc(-c4cnc(N)nc4)ccc31)CN(CCO)CC2 [cpd 510] |  |  |  | 3.97 ± 0.42 | 3.42 ± 0.72 | 
25 | CCCCCCCCn1cc(CC(N)=O)c2cc(-c3cnc(N)nc3)ccc21 [cpd 512] |  |  |  | > 50 | > 50 | 
26 | CCCCCCCCn1cc(CC(N)=O)c2cc(-c3ccnc(F)c3)ccc21 [cpd 513] |  |  |  | 25.6 ± 3.48 | 26.1 ± 0.41 | 

More lines, main results first:

Row | IC50 [1] [µM] | IC50 [2, 4] [µM] | IC50 [3, 5] [µM] | IC50 [2, 8] [µM] | IC50 [3, 9] [µM] | SMILES | other results
27 | 2.56 |  |  |  |  | CCCCCCCCn1cc(CN(CC)CC)c2cc(-c3ccccc3F)ccc21 [Compound 8-2] | 
28 | 1.61 |  |  |  |  | CCCCCCCCn1cc(CN(CC)CC)c2cc(-c3cccc(F)c3)ccc21 [Compound 8-3] | 
29 | 1.28 | 9.66 | 6.69 |  |  | CCCCCCCCn1cc(CN(CC)CC)c2cc(-c3ccccc3C(F)(F)F)ccc21 [Compound 8-4] | 
30 | 2.61 |  |  |  |  | CCCCCCCCn1cc(CN(CC)CC)c2cc(-c3cccc(C(F)(F)F)c3)ccc21 [Compound 8-5] | 
31 | 0.96 |  |  |  |  | CCCCCCCCn1cc(CN(CC)CC)c2cc(-c3cnccc3F)ccc21 [Compound 8-8, Diethyl-[5(4-Fluoro-pyrdin-3yl)-1-octyl-1H-indol-3ylmethyl]-amine] | IC50 [2, 6]: 5.88 µM; IC50 [3, 7]: 5.14 µM
32 | 2.26 | 5.92 | 3.95 |  |  | CCCCCCCCn1cc(CN(CC)CC)c2cc(-c3cnc(C#N)nc3)ccc21 [Compound 8-19, 5-(3-Diethylaminomethyl-1-octyl-1H-indol-5-yl)-pyrimidine-2-carbonitrile] | 
33 | 2.45 | 6.19 | 7.72 |  |  | CCCCCCCCn1cc(CN(CC)CC)c2cc(-c3ccc(C#N)cc3)ccc21 [Compound 8-20, 4-(3-Diethylaminomethyl-1-octyl-1H-indol-5-yl)-benzonitrile] | 
